Laboratory results taken from the supplement of paper PMC4862054.

Tests used:
Conditions in all cases: 72 h
[1] = system: CAL-85-1
Outline: (§1)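 To measure viability, fluorescence at 560/590 nm was read after 2.5 µl CellTiter-Blue had been added for 2 h at 37 °C. Cells from breast cancer lines had been seeded in 20 µl suspension onto 384-well plates pre-loaded with compound dissolved in 5 µl medium and kept for 72 h. EC50 comes from a fitted percent-inhibition dose-response curve censored at the highest concentration, after per-plate normalisation to vehicle and a positive kill control, Z'-factor checks, and removal of rows with zero drug sensitivity score.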

[2] = system: HDQ-P1
Outline: as §1

[3] = system: MDA-MB-453
Outline: as §1

[4] = system: DU-4475
Outline: as §1

[5] = system: CAL-148
Outline: as §1

[6] = system: CAL-51
Outline: as §1

[7] = system: HCC1937
Outline: as §1

[8] = system: CAL-120
Outline: as §1

[9] = system: BT-549
Outline: as §1

[10] = system: MDA-MB-436
Outline: as §1

[11] = system: MFM-223
Outline: as §1

[12] = system: BT-474
Outline: as §1

[13] = system: HCC1599
Outline: as §1

[14] = system: MDA-MB-468
Outline: as §1

[15] = system: HCC1143
Outline: as §1

[16] = system: Hs578T
Outline: as §1

[17] = system: MDA-MB-231
Outline: as §1

[18] = system: SK-BR-3
Outline: as §1

[19] = system: CAL-85-1; remark: listed apart in the source
Method: (§2)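 Drug sensitivity and resistance testing (DSRT) of breast cancer cell lines in 384-well plates, 5 concentrations in 10-fold dilutions over a compound-specific 10,000-fold range. After 72 h, cytotoxicity was read by CellTox Green fluorescence and viability by CellTiter-Glo luminescence (multiplexed), normalised to DMSO and benzethonium chloride controls. EC50 is the inflection point of the fitted dose-response curve (bottom asymptote free, so it can be relative for partial curves) and is censored at the highest tested concentration. Rows with DSS 0 (no meaningful response) were excluded.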

[20] = system: MCF-10A
Method: as §2

[21] = system: CAL-120; remark: listed apart in the source
Method: as §2

[22] = system: BT-549; remark: listed apart in the source
Method: as §2

[23] = system: MDA-MB-436; remark: listed apart in the source
Method: as §2

[24] = system: MFM-223; remark: listed apart in the source
Method: as §2

[25] = system: MDA-MB-468; remark: listed apart in the source
Method: as §2

[26] = system: Hs578T; remark: listed apart in the source
Method: as §2

[27] = system: MDA-MB-231; remark: listed apart in the source
Method: as §2

[28] = system: CAL-51; remark: listed apart in the source
Method: as §2

[29] = system: MCF-10A; remark: listed apart in the source
Outline: (§3)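 Per-plate normalisation used 0.1 % DMSO and a positive kill control. Breast cancer cell lines (20 µl suspension) were seeded into 384-well plates containing compound at 5 concentrations in 10-fold steps across a compound-specific 10,000-fold range, incubated for 72 h, and read first for CellTox Green fluorescence (485/520 nm), then for CellTiter-Glo luminescence. EC50 was fitted from the dose-response curves and censored at the top concentration.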

[30] = system: CAL-148; remark: listed apart in the source
Outline: as §3

[31] = system: HCC1143; remark: listed apart in the source
Outline: as §3

[32] = system: HDQ-P1; remark: listed apart in the source
Method: as §2

[33] = system: BT-474; remark: listed apart in the source
Method: as §2

[34] = system: DU-4475; remark: listed apart in the source
Method: as §2

[35] = system: CAL-148; remark: listed apart in the source
Method: as §2

[36] = system: MDA-MB-453; remark: listed apart in the source
Method: as §2

[37] = system: HCC1937; remark: listed apart in the source
Method: as §2

Row | SMILES | EC50, CellTiter-Blue viability [1] [µM] | EC50, CellTiter-Blue viability [2] [µM] | EC50, CellTiter-Blue viability [3] [µM] | EC50, CellTiter-Blue viability [4] [µM] | EC50, CellTiter-Blue viability [5] [µM] | EC50, CellTiter-Blue viability [6] [µM] | EC50, CellTiter-Blue viability [7] [µM] | EC50, CellTiter-Blue viability [8] [µM] | EC50, CellTiter-Blue viability [9] [µM] | EC50, CellTiter-Blue viability [10] [µM] | EC50, CellTiter-Blue viability [11] [µM] | EC50, CellTiter-Blue viability [12] [µM] | EC50, CellTiter-Blue viability [13] [µM] | EC50, CellTiter-Blue viability [14] [µM] | EC50, CellTiter-Blue viability [15] [µM] | EC50, CellTiter-Blue viability [16] [µM] | EC50, CellTiter-Blue viability [17] [µM] | EC50, CellTiter-Blue viability [18] [µM] | EC50, CellTox Green [19] [µM] | EC50, CellTox Green [20] [µM] | EC50, CellTox Green [21] [µM] | EC50, CellTox Green [22] [µM] | EC50, CellTox Green [23] [µM] | EC50, CellTox Green [24] [µM] | EC50, CellTox Green [25] [µM] | EC50, CellTox Green [26] [µM] | EC50, CellTox Green [27] [µM] | EC50, CellTox Green [28] [µM] | EC50, CellTiter-Glo [29] [µM] | EC50, CellTiter-Glo [30] [µM] | EC50, CellTiter-Glo [31] [µM] | EC50, CellTox Green [32] [µM] | EC50, CellTox Green [33] [µM] | EC50, CellTox Green [34] [µM] | EC50, CellTox Green [35] [µM] | EC50, CellTox Green [36] [µM] | EC50, CellTox Green [37] [µM]
1 | COc1ccc(S(=O)(=O)Nc2cccnc2Nc2ccc(O)cc2)cc1 [ABT-751] | 0.29 | 0.245 | 0.114 | 1.25 | 0.949 | 0.772 | 0.349 | 0.295 | 2.47 | 0.776 | 2.13 | 0.552 | 1.59 | 0.748 | 1.78 | 0.218 | 0.376 | 0.156 | 0.194 | 6.83 | > 10 | 0.19 | 0.116 | 5.43 | 0.00299 | 1.41 | 0.497 | 7.38 | 5.77 | 6.97 | 0.644 |  |  |  |  |  | 
2 | Cc1cc(Nc2nc(N[C@@H](C)c3ncc(F)cn3)ncc2Cl)[nH]n1 [AZD1480] |  |  | 0.782 | 0.443 |  |  |  |  |  |  | 0.0648 |  | 0.213 |  |  |  |  |  |  |  |  | > 1 |  | 0.872 |  |  |  |  |  |  |  |  |  |  |  |  | 
3 | CC1(COc2ccc3c(c2)ncn3-c2ccc3cccc(N4CCC(N)CC4)c3n2)COC1 [Crenolanib] |  |  |  |  |  |  |  |  |  |  |  |  |  |  |  |  |  |  | 2.62 | 3.37 |  | 3 | 0.0293 |  |  |  | 2.71 | 4.71 | 4.78 | 4.35 |  | 1.04 | 2.39 | > 10 | 2.53 |  | 
4 | CC(C)(C)c1nc(-c2cccc(NS(=O)(=O)c3c(F)cccc3F)c2F)c(-c2ccnc(N)n2)s1 [Dabrafenib] |  |  |  |  |  |  |  |  |  |  |  |  |  |  |  |  |  |  |  |  |  |  |  |  |  | 0.00991 |  |  |  |  |  |  |  | 0.224 |  |  | 
5 | CC(=O)[C@]1(O)Cc2c(O)c3c(c(O)c2[C@@H](O[C@H]2C[C@H](N)[C@H](O)[C@H](C)O2)C1)C(=O)c1ccccc1C3=O [Idarubicin] | 0.24 | 0.277 | 0.396 | 0.0234 | 0.0187 | 0.00778 | 0.00547 | 0.0422 | 0.0915 | 0.0968 | 0.263 | 0.116 | 0.945 | 0.053 | 0.0915 | 0.0938 | 0.0796 | 0.0245 | 0.198 | 0.642 |  |  |  | 0.806 | 0.0827 |  |  | 0.148 | 0.455 | 0.125 | 0.531 |  | 0.0535 |  | 0.0319 |  | 
6 | CN(Cc1cnc2nc(N)nc(N)c2n1)c1ccc(C(=O)N[C@@H](CCC(=O)O)C(=O)O)cc1 [Methotrexate] | 0.0717 |  |  |  | 0.0465 | 0.0848 |  | 0.0159 |  |  |  |  |  | 0.0251 | 0.0152 | 0.0515 |  | 0.0235 | > 50 |  |  |  | 17.9 |  |  | 11 |  |  |  |  |  |  |  |  |  | > 50 | 
7 | CO[C@@H]1[C@H](N(C)C(=O)c2ccccc2)C[C@H]2O[C@]1(C)n1c3ccccc3c3c4c(c5c6ccccc6n2c5c31)C(=O)NC4 [Midostaurin] | 0.314 | 1.13 | 0.0924 | 0.451 |  | 0.182 | 0.237 | 0.591 | 1.49 | 0.204 | 0.708 |  | 0.617 | 0.49 | 0.822 | 0.299 | 0.477 | 1.24 |  |  | 0.51 | 1.06 |  |  | 0.384 | 0.997 | 0.193 | 0.0296 | 0.13 |  | 0.414 | 1.97 |  |  |  |  | 
8 | CO[C@@]12[C@H](COC(N)=O)C3=C(C(=O)C(C)=C(N)C3=O)N1C[C@@H]1N[C@@H]12 [Mitomycin C] | 3.92 | 8.56 | 3.43 | 5.07 | 2.94 | 5.79 | 0.36 | 7.16 | 2.97 | 2.68 | 3.79 | 2.5 | 1.37 | 2.27 | 2.38 | 3.56 | 1.08 | 1.49 |  |  |  |  |  |  | 0.0276 | > 10 |  | 0.307 |  |  |  | > 10 |  |  |  |  | 
9 | CCNC(=O)c1noc(-c2cc(C(C)C)c(O)cc2O)c1-c1ccc(CN2CCOCC2)cc1 [NVP-AUY922] | 0.0188 | 0.00972 | 0.0153 | 0.0159 | 0.0194 | 0.0222 | 0.00076 | 0.00781 | 0.00561 | 0.0102 | 0.00515 | 0.0234 | 0.0452 | 0.00789 | 0.0322 | 0.00374 | 0.0067 | 0.00613 | 0.0841 | 0.00761 | > 1 |  |  |  |  | 0.247 | 0.00941 | 0.0746 | 0.0276 | 0.0414 | 0.0387 | 0.033 | 0.219 | 0.0252 | 0.0295 | > 1 | 0.987
10 | CC1(C)CCC(c2ccc(Cl)cc2)=C(CN2CCN(c3ccc(C(=O)NS(=O)(=O)c4ccc(N[C@H](CCN5CCOCC5)CSc5ccccc5)c(S(=O)(=O)C(F)(F)F)c4)cc3)CC2)C1 [Navitoclax] |  | 0.0274 |  | 0.286 | 0.129 |  |  | 0.235 | 0.373 |  | 0.101 |  | 0.166 | 0.109 |  |  | 0.614 |  | 0.517 |  | 0.884 |  |  | 2.2 | 1.74 |  | 0.162 | 0.906 |  | 1 |  | 0.289 | 1.54 |  | 0.306 |  | 
11 | CC(C)n1cnc2c(NCCc3ccc(O)cc3)nc(-c3csc4ccccc34)nc21 [StemRegenin 1] |  |  |  |  |  |  |  |  |  |  |  |  |  |  |  |  |  |  |  |  |  |  |  | 2.81 |  |  |  |  |  |  |  |  | > 10 |  |  |  | 
